Laboratory results as given in the supplement of paper PMC10307832.

Columns and labels:
Assay in all cases: relative viability (nuclei count vs DMSO), 5 days (fraction); higher = more cells survive
[1] = compound: O=C1NC(=O)[C@@H](c2cn3c4c(cccc24)CCC3)[C@@H]1c1c[nH]c2ccccc12 [Tivantinib] + Cc1nc(NC(=O)N2CCC[C@H]2C(N)=O)sc1-c1ccnc(C(C)(C)C(F)(F)F)c1 [Alpelisib] (partner 2 µM)
Method in brief: (§1)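 After 5 days of treatment, lung cancer cells in 1536-well plates were fixed and stained in a single step (final 0.05% Triton X-100, 1% formaldehyde, 1 ug/ml Hoechst) and their nuclei counted on 4× images. Treatment had been applied by pin tool the day after seeding as one drug alone or as a fixed anchor-drug dose with five library-drug doses (not always all listed) in √10 steps. Relative viability is the nuclei count of treated wells divided by that of vehicle wells, and values are medians of duplicate plates.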

[2] = compound: CC1(COc2ccc3c(c2)ncn3-c2ccc3cccc(N4CCC(N)CC4)c3n2)COC1 [Crenolanib] + N=C(N)NC(=N)NCCc1ccccc1 [Phenformin] (partner 250 µM)
Method in brief: as §1

[3] = compound: CC1(COc2ccc3c(c2)ncn3-c2ccc3cccc(N4CCC(N)CC4)c3n2)COC1 [Crenolanib] + CC1(C)CCC(c2ccc(Cl)cc2)=C(CN2CCN(c3ccc(C(=O)NS(=O)(=O)c4ccc(N[C@H](CCN5CCOCC5)CSc5ccccc5)c(S(=O)(=O)C(F)(F)F)c4)cc3)CC2)C1 [Navitoclax] (partner 0.5 µM)
Method in brief: as §1

[4] = compound: O=C1NC(=O)[C@@H](c2cn3c4c(cccc24)CCC3)[C@@H]1c1c[nH]c2ccccc12 [Tivantinib] + CCNC(=O)c1noc(-c2cc(C(C)C)c(O)cc2O)c1-c1ccc(CN2CCOCC2)cc1 [Luminespib] (partner 0.01 µM)
Method in brief: as §1

Cell Line | relative viability ([1]; first compound 0.01 µM) | relative viability ([1]; first compound 0.03162 µM) | relative viability ([1]; first compound 0.1 µM) | relative viability ([1]; first compound 0.3162 µM) | relative viability ([2]; first compound 0.01 µM) | relative viability ([2]; first compound 0.03162 µM) | relative viability ([2]; first compound 0.1 µM) | relative viability ([2]; first compound 0.3162 µM) | relative viability ([2]; first compound 1 µM) | relative viability ([3]; first compound 0.01 µM) | relative viability ([3]; first compound 0.03162 µM) | relative viability ([3]; first compound 0.1 µM) | relative viability ([3]; first compound 0.3162 µM) | relative viability ([3]; first compound 1 µM) | relative viability ([4]; first compound 0.01 µM) | relative viability ([4]; first compound 0.03162 µM) | relative viability ([4]; first compound 0.1 µM) | relative viability ([4]; first compound 0.3162 µM)
201T | 0.982 | 1 | 0.999 | 0.981 | 0.438 | 0.446 | 0.438 | 0.446 | 0.435 | 1.19 | 1.21 | 1.16 | 1.16 | 1.24 | 1.07 | 1.05 | 1.01 | 1.09
A549 | 0.769 | 0.818 | 0.708 | 0.79 | 0.193 | 0.185 | 0.165 | 0.103 | 0.145 | 1.2 | 1.13 | 1.18 | 1.53 | 1.02 |  |  |  | 
A-427 | 1.12 | 1.12 | 1.1 | 0.973 | 0.366 | 0.372 | 0.311 | 0.255 | 0.244 | 0.995 | 0.912 | 0.999 | 1.02 | 0.966 | 0.971 | 0.873 | 0.899 | 0.76
ABC-1 | 0.984 | 0.995 | 0.742 | 0.825 | 0.21 | 0.265 | 0.22 | 0.261 | 0.257 |  |  |  |  |  | 0.43 | 0.944 | 0.339 | 0.675
BEN | 1.02 | 0.837 | 0.893 | 0.735 | 0.259 | 0.235 | 0.267 | 0.255 | 0.271 | 0.0589 | 0.0559 | 0.0723 | 0.0658 | 0.0687 | 0.361 | 0.262 | 0.232 | 0.385
CAL-12T | 1.19 | 1.32 | 1.09 | 0.8 | 0.533 | 0.575 | 0.545 | 0.598 | 0.538 | 1.48 | 1.19 | 1.22 | 1.48 | 1.26 | 0.506 | 0.756 | 0.43 | 0.259
COR-L23 | 0.864 | 0.754 | 0.671 | 0.905 | 0.444 | 0.417 | 0.47 | 0.427 | 0.397 | 1.06 | 1.07 | 0.922 | 1.12 | 1.04 | 0.625 | 0.685 | 0.661 | 0.757
COR-L 105 | 1 | 0.921 | 0.783 | 0.95 | 0.625 | 0.474 | 0.497 | 0.5 | 0.547 | 0.766 | 0.778 | 0.713 | 0.975 | 0.884 | 0.708 | 0.835 | 0.873 | 0.742
Calu-6 | 0.987 | 1.03 | 1.02 | 0.955 |  |  |  |  |  | 1.02 | 0.781 | 0.826 | 0.941 | 0.838 |  |  |  | 
ChaGo-K-1 |  |  |  |  | 0.533 | 0.495 | 0.536 | 0.42 | 0.497 | 0.674 | 0.917 | 1 | 0.844 | 1 | 0.679 | 0.539 | 0.576 | 0.597
EBC-1 | 0.948 | 0.865 | 0.841 | 0.719 |  |  |  |  |  | 0.504 | 0.395 | 0.467 | 0.566 | 0.571 |  |  |  | 
EKVX | 0.912 | 0.785 | 0.888 | 0.239 | 0.223 | 0.224 | 0.24 | 0.241 | 0.23 | 1.01 | 0.898 | 0.881 | 1.11 | 0.899 | 0.997 | 0.927 | 0.938 | 
EMC-BAC-2 | 0.792 | 0.718 | 0.705 | 0.656 | 0.629 | 0.497 | 0.589 | 0.51 | 0.505 | 1.22 | 1.21 | 1.09 | 1.36 | 1.16 | 1.17 | 1.17 | 1.18 | 1.08
EPLC-272H | 0.975 | 0.922 | 0.836 | 0.672 | 0.356 | 0.331 | 0.224 | 0.375 | 0.382 |  | 1.25 | 0.988 | 1.17 | 1.08 | 0.374 | 0.23 | 0.431 | 0.19
H3255 | 0.659 | 0.679 | 0.75 |  | 0.432 | 0.326 | 0.386 | 0.321 | 0.35 | 0.607 | 0.419 | 0.421 | 0.501 | 0.492 | 0.934 | 0.811 | 0.741 | 
HARA | 0.962 | 0.737 | 0.827 | 0.431 | 0.471 | 0.464 | 0.398 | 0.391 | 0.488 | 1.13 | 1.16 | 1.16 | 1.18 | 1.16 | 0.909 | 0.592 | 0.738 | 0.689
HCC-15 | 0.942 | 0.832 | 0.799 | 0.996 | 0.51 | 0.506 | 0.447 | 0.469 | 0.327 | 0.694 | 0.673 | 0.677 | 0.784 | 0.729 | 0.246 | 0.285 | 0.456 | 0.289
HCC-44 | 0.844 | 0.703 | 0.858 | 0.793 | 0.267 | 0.207 | 0.188 | 0.184 | 0.169 | 0.951 | 0.998 | 0.961 | 0.987 | 0.94 | 1.13 | 1 | 0.954 | 0.634
HCC-78 | 0.412 | 0.306 | 0.34 | 0.204 | 0.783 | 0.604 |  | 0.791 | 0.555 | 0.754 | 0.8 | 0.726 | 0.727 | 0.764 |  |  |  | 
HCC-366 | 0.432 | 0.35 | 0.421 | 0.419 | 0.612 | 0.617 | 0.591 | 0.557 | 0.587 | 1.03 | 1.12 | 1.03 | 1.23 | 1.01 |  |  |  | 
